Reference: patent US20180305332A1, “Bispiperidinyl Derivatives as Liver X Receptor Beta Agonists, Compositions, and Their Use” (Merck Sharp & Dohme Corp., priority 2015, published 2018)

Tests used:
[1] = target: T1, GST tagged LXRbeta LBD (ligand binding domain) (Homo sapiens, UniProt P55055); test: LanthaScreen TR-FRET Liver X Receptor Coactivator Assay, LXR beta-LBD; format: biochemical; details: relative to reference T0901317; for EC50: Inflection Point (potency), co-activator recruitment, read-out: LXR beta IP; for Emax: activity at max dose (efficacy), read-out: LXR beta act @ max dose (%)
T1 construct: purchased Invitrogen pv4658.pps
T1 sequence (P55055 222-460 limits assumed): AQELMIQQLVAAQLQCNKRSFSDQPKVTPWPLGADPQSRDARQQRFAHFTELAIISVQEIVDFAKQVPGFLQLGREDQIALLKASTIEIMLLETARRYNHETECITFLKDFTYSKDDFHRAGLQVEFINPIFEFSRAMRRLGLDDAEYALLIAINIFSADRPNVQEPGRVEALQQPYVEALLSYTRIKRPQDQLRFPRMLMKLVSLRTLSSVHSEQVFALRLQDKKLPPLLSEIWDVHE
Method in brief: (§1)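 TR-FRET signal reflects compound-driven recruitment of a fluorescein-tagged coactivator peptide to the GST-tagged LBD, detected via terbium-labelled anti-GST antibody after incubation at room temperature. Potency given as inflection point; efficacy as Emax versus T0901317.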

[2] = target: T2, GST tagged LXRalpha LBD (ligand binding domain) (Homo sapiens, UniProt Q13133); test: LanthaScreen TR-FRET Liver X Receptor Coactivator Assay, LXR alpha-LBD; format: biochemical; details: relative to reference T0901317; for EC50 / LXR alpha IP (nM): Inflection Point (potency), co-activator recruitment; for EC50: read-out: LXR alpha IP; for Emax: activity at max dose (efficacy), read-out: LXR alpha act @ max dose (%)
T2 construct: purchased Invitrogen pv4655
T2 sequence (Q13133 209-447 limits assumed): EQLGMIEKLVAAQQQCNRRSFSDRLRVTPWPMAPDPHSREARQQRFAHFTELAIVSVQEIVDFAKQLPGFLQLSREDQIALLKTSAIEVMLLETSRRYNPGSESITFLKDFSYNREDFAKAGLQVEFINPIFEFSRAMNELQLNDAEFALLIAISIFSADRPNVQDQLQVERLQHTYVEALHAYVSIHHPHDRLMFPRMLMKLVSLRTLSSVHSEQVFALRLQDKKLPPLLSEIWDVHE
Method in brief: as §1

SMILES	EC50 [1]	Emax [1]	EC50 [2]	Emax [2]	LXR alpha IP (nM) [2]
CC1CCCN1C(=O)c1ccc(N2CCC(C3CCN(C(=O)[C@](O)(c4ccccc4)C(F)(F)F)CC3)CC2)cc1Cl (stereo partly drawn) [Example E-25, (2R)-3-(1′-{3-chloro-4-[(2-methylpyrrolidin-1-yl)carbonyl]phenyl}-4,4′-bipiperidin-1-yl)-1,1,1-trifluoro-3-oxo-2-phenylpropan-2-ol]	0.332 µM	88%	0.769 µM	15%	
CN(CCO)C(=O)c1ccc(N2CCC(C3CCN(C(=O)[C@](O)(c4ccccc4)C(F)(F)F)CC3)CC2)cc1Cl [Example E-58, 2-chloro-N-(2-hydroxyethyl)-N-methyl-4-{1′-[(2R)-3,3,3-trifluoro-2-hydroxy-2-phenylpropanoyl]-4,4′-bipiperidin-1-yl}benzamide]	0.057 µM	98%	1.83 µM	48%	
CN(CC1CC1(C)C)C(=O)c1ccc(N2CCC(C3CCN(C(=O)c4c(F)cccc4F)CC3)CC2)cc1Cl (stereo not drawn) [Example E-15, 2-chloro-4-{1′-[(2,6-difluorophenyl)carbonyl]-4,4′-bipiperidin-1-yl}-N-[(2,2-dimethylcyclopropyl)methyl]-N-methylbenzamide]	0.283 µM	54%		10%	NO IP
CN(C)C(=O)c1ccc(N2CCC(C3CCN(C(=O)C(O)(c4ccccc4)C4CC4)CC3)CC2)cc1Cl (stereo not drawn) [Example A-52, 2-chloro-4-{1′-[cyclopropyl(hydroxy)phenylacetyl]-4,4′-bipiperidin-1-yl}-N,N-dimethylbenzamide]	0.171 µM	96%	2.07 µM	22%	
CC1CCCN(C(=O)c2ccc(N3CCC(C4CCN(C(=O)[C@](O)(c5ccccc5)C(F)(F)F)CC4)CC3)cc2Cl)C1 (stereo partly drawn) [Example E-38, (2R)-3-(1′-{3-chloro-4-[(3-methylpiperidin-1-yl)carbonyl]phenyl}-4,4′-bipiperidin-1-yl)-1,1,1-trifluoro-3-oxo-2-phenylpropan-2-ol]	0.276 µM	57%		0%	NO IP
COc1cccc([C@@](O)(C(=O)N2CCC(C3CCN(c4ccc(C(=O)N(C)C)c(Cl)c4)CC3)CC2)C(F)(F)F)c1 (single isomer, unassigned) [Example A-65]	0.119 µM	100%	2.12 µM	19%	
O=C(c1ccc(N2CCC(C3CCN(C(=O)[C@](O)(c4ccccc4)C(F)(F)F)CC3)CC2)cc1Cl)N1CCCC1C1CC1 (stereo partly drawn) [Example E-57, (2R)-3-(1′-{3-chloro-4-[(2-cyclopropylpyrrolidin-1-yl)carbonyl]phenyl}-4,4′-bipiperidin-1-yl)-1,1,1-trifluoro-3-oxo-2-phenylpropan-2-ol]	0.134 µM	65%	0.975 µM	16%	
O=C(c1ccc(N2CCC(C3CCN(C(=O)[C@](O)(c4ccccc4)C(F)(F)F)CC3)CC2)cc1Cl)N1CC[C@H](F)C1 [Example E-26, (2R)-3-[1′-(3-chloro-4-{[(3S)-3-fluoropyrrolidin-1-yl]carbonyl}phenyl)-4,4′-bipiperidin-1-yl]-1,1,1-trifluoro-3-oxo-2-phenylpropan-2-ol]	0.279 µM	92%	1.45 µM	25%	
Cc1ccccc1C1(C(=O)N2CCC(C3CCN(c4ccc(C(=O)N(C)C)c(Cl)c4)CC3)CC2)CCC1 [Example A-75, 2-chloro-N,N-dimethyl-4-(1′-{[1-(2-methylphenyl)cyclobutyl]carbonyl}-4,4′-bipiperidin-1-yl)benzamide]	0.018 µM	118%	0.446 µM	65%	
CN(CCO)C(=O)c1ccc(N2CCC(C3CCN(C(=O)[C@](O)(c4ccccc4)C(F)(F)C(F)(F)F)CC3)CC2)cc1Cl [Example E-64, 2-chloro-N-(2-hydroxyethyl)-N-methyl-4-{1′-[(2R)-3,3,4,4,4-pentafluoro-2-hydroxy-2-phenylbutanoyl]-4,4′-bipiperidin-1-yl}benzamide]	0.026 µM	146%	0.913 µM	54%	
COc1cccc([C@](O)(C(=O)N2CCC(C3CCN(c4ccc(C(=O)N(C)C)c(Cl)c4)CC3)CC2)C(F)(F)F)c1 (single isomer, unassigned) [Example A-66]	0.251 µM	90%	2.48 µM	21%	
CN(C)C(=O)c1ccc(N2CCC(C3CCN(C(=O)C(O)(C(C)(C)C)C(F)(F)F)CC3)CC2)cc1Cl (single isomer, unassigned) [Example A-6, 2-Chloro-4-(1′-(2-hydroxy-3,3-dimethyl-2-(trifluoromethyl)butanoyl)-[4,4′-bipiperidin]-1-yl)-N,N-dimethylbenzamide]	0.024 µM	107%	0.626 µM	70%	
CC(C)C(O)(C(=O)N1CCC(C2CCN(c3ccc(C(=O)N(C)C)c(F)c3)CC2)CC1)C(F)(F)F [Example D-2, 2-fluoro-4-{1′-[2-hydroxy-3-methyl-2-(trifluoromethyl)butanoyl]-4,4′-bipiperidin-1-yl}-N,N-dimethylbenzamide]	0.4 µM	99%	2.77 µM	41%	
CN(C)C(=O)c1ccc(N2CCC(C3CCN(C(=O)c4c(F)cc(F)cc4F)CC3)CC2)cc1Cl [Example A-37, 2-chloro-N,N-dimethyl-4-{1′-[(2,4,6-trifluorophenyl)carbonyl]-4,4′-bipiperidin-1-yl}benzamide]	0.274 µM	93%	4.1 µM	35%	
CN(C)C(=O)c1ccc(N2CCC(C3CCN(C(=O)OC(C)(C)C)CC3)CC2)cc1Cl [Example A-1, tert-Butyl 1′-(3-chloro-4-(dimethylcarbamoyl)phenyl)-[4,4′-bipiperidine]-1-carboxylate]	0.016 µM	106%	0.748 µM	76%	
CN(C)C(=O)c1ccc(N2CCC(C3CCN(C(=O)C(F)(F)c4ccccc4)CC3)CC2)cc1Cl [Example A-64, 2-chloro-4-{1′-[difluoro(phenyl)acetyl]-4,4′-bipiperidin-1-yl}-N,N-dimethylbenzamide]	0.054 µM	144%	0.936 µM	74%	
CN(C)C(=O)c1ccc(N2CCC(C3CCN(C(=O)C(O)(CCc4ccccc4)C(F)(F)F)CC3)CC2)cc1Cl (stereo not drawn) [Example A-49, 2-chloro-4-{1′-[2-hydroxy-4-phenyl-2-(trifluoromethyl)butanoyl]-4,4′-bipiperidin-1-yl}-N,N-dimethylbenzamide]	0.429 µM	32%		16%	NO IP
CN(C)C(=O)c1ccc(N2CCC(C3CCN(C(=O)c4ccccc4C(F)(F)F)CC3)CC2)cc1Cl [Example A-21, 2-chloro-N,N-dimethyl-4-(1′-{[2-(trifluoromethyl)phenyl]carbonyl}-4,4′-bipiperidin-1-yl)benzamide]	0.243 µM	95%	3 µM	37%	
